Results from patent US9227966B2, “Antimicrobial agents” (Rutgers, The State University of New Jersey, priority 2010, dated 2016).

system: methicillin-Sensitive Staphylococcus aureus (MSSA); assay: Planktonic (free-living) antibacterial assay, broth microdilution MIC vs. MSSA; assay type: cell-based; settings: minimal concentration at which bacterial growth is completely inhibited, 37° C., 24 to 48 hours, OD 600 nm
Description: Test C. Planktonic (Free-Living) Antibacterial Assay.
Planktonic antibacterial activity can be determined using a broth microdilution assay in which log-phase bacteria are grown at 37° C. in appropriate medium containing two-fold serial dilutions of a compound to yield a final concentration ranging from […]. For determination of minimal inhibitory concentration (MIC) values, bacterial growth is monitored after 24 to 48 hours by measuring optical density at 600 nm.
The minimal inhibitory concentration against methicillin-Sensitive Staphylococcus aureus (MSSA) for each of the following representative compounds of the invention was determined to be less than 32 μg/ml.

Row | MIC | SMILES
1 | ≤ 32 µg/mL | COc1cc2cc(-c3cccc(-c4ccc(-c5ccccc5)cc4)c3)[n+](C)c(C)c2cc1OC.[I-] [Example 16]
2 | ≤ 32 µg/mL | COc1cc2cc3c4cc(-c5ccc(-c6ccccc6)cc5)c(OC)c(OC)c4cc[n+]3c(C)c2cc1OC [Example 17]
3 | ≤ 32 µg/mL | COc1cc2cc[n+]3cc4c(OC)c(OC)c(OC)cc4cc3c2cc1-c1ccc(-c2ccccc2)cc1.[Cl-] [Example 19]
4 | ≤ 32 µg/mL | COc1cc2c(C)[n+]3ccc4c(OC)c(OC)ccc4c3cc2c(-c2ccc(-c3ccccc3)cc2)c1OC [Example 20]
5 | ≤ 32 µg/mL | COc1cc2c[n+]3ccc4c(OC)c(OC)ccc4c3cc2c(-c2ccc(-c3ccccc3)cc2)c1OC.[Cl-] [Example 21]
6 | ≤ 32 µg/mL | COc1cc2cc3c4cc(-c5ccc(C)cc5)c(OC)cc4cc[n+]3cc2cc1OC.[Cl-] [Example 31]
7 | ≤ 32 µg/mL | COc1cc2cc3c4cc(-c5ccccc5)c(OC)cc4cc[n+]3cc2cc1OC.[Cl-] [Example 35]

Continued, compound first:

Row | SMILES | MIC
8 | C[n+]1cc2ccccc2cc1-c1cccc(-c2ccccc2)c1.[I-] [Example 2] | ≤ 32 µg/mL
9 | COc1cc2cc(-c3cccc(-c4ccccc4)c3)[n+](C)c(C)c2cc1OC.[I-] [Example 4] | ≤ 32 µg/mL
10 | C[n+]1cc2ccccc2cc1-c1cc(-c2ccccc2)cc(-c2ccccc2)c1.[I-] [Example 6] | ≤ 32 µg/mL
11 | COc1cc2cc(-c3cc(-c4ccccc4)cc(-c4ccccc4)c3)[n+](C)c(C)c2cc1OC.[I-] [Example 8] | ≤ 32 µg/mL
12 | COc1cc2cc3c4cc(-c5cccc(N(C)C)c5)c(OC)cc4cc[n+]3c(C)c2cc1OC [Example 27] | ≤ 32 µg/mL
13 | COc1cc2cc3c4cc(-c5ccc(C)cc5)c(OC)cc4cc[n+]3c(C)c2cc1OC [Example 30] | ≤ 32 µg/mL
